Test results as given in ChEMBL document CHEMBL5380833 (J Med Chem, 2023).
Active and inactive are the calls of the source. The rule behind the calls is not given here.

Tests used:
[1] = AUC (0 to t) in Balb/c mouse at 5 mg/kg, iv measured upto 24 hrs by LC-MS/MS analysis; type: ADME, organism-based; design: dose 5 mg/kg, time < 24 hrs, route iv; details: in vivo
[2] = target: T1, Protein cereblon/Tyrosine-protein kinase ITK/TSK (Homo sapiens, UniProt Q08881+Q96SW2); experiment: PROTAC activity at CRBN/ITK in human Jurkat cells assessed as maximum degradation at 0.01 to 10 uM by Western blot analysis relative to control; type: cell-based; details: dose 0.01-10 µM
[3] = Half life in Balb/c mouse at 5 mg/kg, iv measured upto 24 hrs by LC-MS/MS analysis; type: ADME, organism-based; details: in vivo
[4] = target: T1, Protein cereblon/Tyrosine-protein kinase ITK/TSK; experiment: PROTAC activity at CRBN/ITK in Jurkat cells assessed as induction of ITK degradation at 100 nM pretreated with GNE-9822 for 1 hr followed by compound addition and measured after 2 hrs by Western blot analysis; type: cell-based
[5] = AUC (0 to infinity) in Balb/c mouse at 10 mg/kg, ip measured upto 24 hrs by LC-MS/MS analysis; type: ADME, organism-based; design: dose 10 mg/kg, time < 24 hrs, route ip; details: in vivo
[6] = Toxicity in Balb/c mouse assessed as drug tolerance at 10 mg/kg, ip measured upto 24 hrs by LC-MS/MS analysis; type: organism-based; details: in vivo
[7] = AUC (0 to t) in Balb/c mouse at 10 mg/kg, ip measured upto 24 hrs by LC-MS/MS analysis; type: ADME, organism-based; design: time < 24 hrs, dose 10 mg/kg, route ip; details: in vivo
[8] = system: Jurkat; experiment: Inhibition of TCR signalling in human Jurkat cells assessed as reduction in ERK(T202/Y204) phosphorylation preincubated with cells for 12 hrs followed by anti-CD-2 antibody stimulation for 5 mins by Western blot analysis; type: cell-based; details: dose 0.01-3 µM
[9] = target: T1, Protein cereblon/Tyrosine-protein kinase ITK/TSK; experiment: PROTAC activity at CRBN/ITK in human Jurkat cells assessed as residual activity at 10 uM incubated for 16 hrs relative to control; type: cell-based
[10] = target: T1, Protein cereblon/Tyrosine-protein kinase ITK/TSK; experiment: PROTAC activity at CRBN/ITK in human Jurkat cells assessed as induction of ITK degradation at 100 nM pretreated with MLN4924 for 1 hr followed by compound addition and measured after 2 hrs by Western blot analysis; type: cell-based
[11] = target: Tyrosine-protein kinase BTK (Homo sapiens) (UniProt Q06187); experiment: Induction of degradation of BTK in human Ramos cells at 0.01 to 10 uM by immunoblotting analysis; type: cell-based; details: dose 0.01-10 µM
[12] = Bioavailability in Balb/c mouse at 10 mg/kg, ip measured upto 24 hrs by LC-MS/MS analysis; type: ADME, organism-based; details: in vivo
[13] = target: Tyrosine-protein kinase Tec (Homo sapiens) (UniProt P42680); experiment: Induction of degradation of TEC in human Jurkat cells at 0.01 to 10 uM by immunoblotting analysis; details: dose 0.01-10 µM
[14] = target: T2, Tyrosine-protein kinase TXK (Homo sapiens) (UniProt P42681); experiment: Induction of degradation of RLK in human Jurkat cells at 0.01 to 10 uM by immunoblotting analysis; type: cell-based; details: dose 0.01-10 µM
T2 sequence (whole entry): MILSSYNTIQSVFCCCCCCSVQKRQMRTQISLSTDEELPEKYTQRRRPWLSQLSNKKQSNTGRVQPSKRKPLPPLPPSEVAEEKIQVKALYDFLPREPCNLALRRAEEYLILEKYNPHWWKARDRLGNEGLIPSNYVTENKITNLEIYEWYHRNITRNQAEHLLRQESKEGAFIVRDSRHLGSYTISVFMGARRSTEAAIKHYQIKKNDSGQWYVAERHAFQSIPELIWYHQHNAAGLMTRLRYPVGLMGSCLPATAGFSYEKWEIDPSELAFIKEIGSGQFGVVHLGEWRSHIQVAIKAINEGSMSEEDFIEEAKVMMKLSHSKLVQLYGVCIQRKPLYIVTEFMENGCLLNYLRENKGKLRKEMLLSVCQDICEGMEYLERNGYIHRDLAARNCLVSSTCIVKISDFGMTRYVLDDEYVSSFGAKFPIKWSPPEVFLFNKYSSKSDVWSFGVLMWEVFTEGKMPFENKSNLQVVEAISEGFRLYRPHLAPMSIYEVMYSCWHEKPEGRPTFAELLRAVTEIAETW

[15] = MRT last in Balb/c mouse at 5 mg/kg, iv measured upto 24 hrs by LC-MS/MS analysis; type: ADME, organism-based; details: in vivo, iv, 5 mg/kg, 24 h
[16] = target: T3, Cytoplasmic tyrosine-protein kinase BMX (Homo sapiens) (UniProt P51813); experiment: Induction of degradation of BMX in human Jurkat cells at 0.01 to 10 uM by immunoblotting analysis; type: cell-based; details: dose 0.01-10 µM
T3 sequence (whole entry): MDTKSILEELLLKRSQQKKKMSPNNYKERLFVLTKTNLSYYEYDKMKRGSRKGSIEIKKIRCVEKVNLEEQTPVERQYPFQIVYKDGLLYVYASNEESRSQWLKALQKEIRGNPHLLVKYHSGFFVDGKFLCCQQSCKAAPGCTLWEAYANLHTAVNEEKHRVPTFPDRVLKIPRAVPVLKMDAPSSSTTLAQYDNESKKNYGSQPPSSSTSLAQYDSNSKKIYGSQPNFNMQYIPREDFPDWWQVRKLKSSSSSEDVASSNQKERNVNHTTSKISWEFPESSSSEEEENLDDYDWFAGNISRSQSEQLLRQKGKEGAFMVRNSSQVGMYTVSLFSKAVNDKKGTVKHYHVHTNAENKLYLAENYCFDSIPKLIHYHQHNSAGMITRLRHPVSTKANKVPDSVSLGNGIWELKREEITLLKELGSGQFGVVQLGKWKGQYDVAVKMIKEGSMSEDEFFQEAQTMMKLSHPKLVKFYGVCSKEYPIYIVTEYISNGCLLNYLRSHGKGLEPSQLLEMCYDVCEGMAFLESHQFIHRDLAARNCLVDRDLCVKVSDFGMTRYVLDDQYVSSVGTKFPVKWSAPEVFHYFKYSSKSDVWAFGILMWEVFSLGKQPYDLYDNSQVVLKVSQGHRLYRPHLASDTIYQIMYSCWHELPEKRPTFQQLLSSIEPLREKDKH

[17] = Toxicity in Balb/c mouse assessed as side effects at 5 mg/kg, iv measured upto 24 hrs by LC-MS/MS analysis; type: organism-based; details: in vivo
[18] = Cmax in Balb/c mouse at 10 mg/kg, ip measured upto 24 hrs by LC-MS/MS analysis; type: ADME, organism-based; design: dose 10 mg/kg, time < 24 hrs, route ip; details: in vivo
[19] = Half life in Balb/c mouse at 10 mg/kg, ip measured upto 24 hrs by LC-MS/MS analysis; type: ADME, organism-based; details: in vivo
[20] = Clearance in Balb/c mouse at 10 mg/kg, ip measured upto 24 hrs by LC-MS/MS analysis; type: ADME, organism-based; details: in vivo
[21] = target: T1, Protein cereblon/Tyrosine-protein kinase ITK/TSK; experiment: PROTAC activity at CRBN/ITK in human Jurkat cells assessed as downregulation of ITK protein at 100 nM preincubated with cells for 12 hrs followed by compound washout measured after 24 hrs; type: cell-based
[22] = target: T1, Protein cereblon/Tyrosine-protein kinase ITK/TSK; experiment: PROTAC activity at CRBN/ITK in human Jurkat cells assessed as […] ITK degradation at 300 nM incubated for 8 hrs by tandem mass tag quantitative proteomic analysis; type: cell-based
[23] = target: T1, Protein cereblon/Tyrosine-protein kinase ITK/TSK; experiment: PROTAC activity at CRBN/ITK in human Jurkat cells assessed as induction of ITK degradation at 100 nM measured after 2 hrs by Western blot analysis; type: cell-based
[24] = Cmax in Balb/c mouse at 5 mg/kg, iv measured upto 24 hrs by LC-MS/MS analysis; type: ADME, organism-based; design: time < 24 hrs, dose 5 mg/kg, route iv; details: in vivo

T1 sequence (Q08881 whole entry, looked up): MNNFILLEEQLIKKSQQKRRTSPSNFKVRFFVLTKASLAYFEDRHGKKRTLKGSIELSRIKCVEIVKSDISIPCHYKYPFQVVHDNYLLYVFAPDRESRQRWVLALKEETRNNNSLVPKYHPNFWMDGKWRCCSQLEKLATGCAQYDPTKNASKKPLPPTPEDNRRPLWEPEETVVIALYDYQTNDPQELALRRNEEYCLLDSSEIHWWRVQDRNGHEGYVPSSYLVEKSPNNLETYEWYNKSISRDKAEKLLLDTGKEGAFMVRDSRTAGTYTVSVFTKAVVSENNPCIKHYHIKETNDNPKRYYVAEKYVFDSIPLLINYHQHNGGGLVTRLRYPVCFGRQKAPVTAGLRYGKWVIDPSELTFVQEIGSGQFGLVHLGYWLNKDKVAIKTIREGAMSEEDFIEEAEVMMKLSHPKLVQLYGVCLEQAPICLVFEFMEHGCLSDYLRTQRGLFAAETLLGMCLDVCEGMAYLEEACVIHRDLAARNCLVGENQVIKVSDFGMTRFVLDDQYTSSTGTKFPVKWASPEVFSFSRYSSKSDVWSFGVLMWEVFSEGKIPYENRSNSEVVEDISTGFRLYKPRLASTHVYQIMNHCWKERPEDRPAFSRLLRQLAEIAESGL
T1 sequence (Q96SW2 whole entry, looked up): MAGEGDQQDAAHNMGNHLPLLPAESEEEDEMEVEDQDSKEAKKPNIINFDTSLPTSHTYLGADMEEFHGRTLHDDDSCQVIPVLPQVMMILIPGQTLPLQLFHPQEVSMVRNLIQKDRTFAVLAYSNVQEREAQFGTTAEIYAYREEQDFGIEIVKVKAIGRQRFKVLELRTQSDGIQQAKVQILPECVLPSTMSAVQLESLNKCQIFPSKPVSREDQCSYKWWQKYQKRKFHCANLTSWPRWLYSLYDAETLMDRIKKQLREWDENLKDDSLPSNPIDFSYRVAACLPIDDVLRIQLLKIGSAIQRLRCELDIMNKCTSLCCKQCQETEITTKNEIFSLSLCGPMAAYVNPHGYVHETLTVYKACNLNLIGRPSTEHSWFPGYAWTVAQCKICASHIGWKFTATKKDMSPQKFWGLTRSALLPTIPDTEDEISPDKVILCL
Tyrosine-protein kinase BTK (Homo sapiens), sequence (Q06187 whole entry): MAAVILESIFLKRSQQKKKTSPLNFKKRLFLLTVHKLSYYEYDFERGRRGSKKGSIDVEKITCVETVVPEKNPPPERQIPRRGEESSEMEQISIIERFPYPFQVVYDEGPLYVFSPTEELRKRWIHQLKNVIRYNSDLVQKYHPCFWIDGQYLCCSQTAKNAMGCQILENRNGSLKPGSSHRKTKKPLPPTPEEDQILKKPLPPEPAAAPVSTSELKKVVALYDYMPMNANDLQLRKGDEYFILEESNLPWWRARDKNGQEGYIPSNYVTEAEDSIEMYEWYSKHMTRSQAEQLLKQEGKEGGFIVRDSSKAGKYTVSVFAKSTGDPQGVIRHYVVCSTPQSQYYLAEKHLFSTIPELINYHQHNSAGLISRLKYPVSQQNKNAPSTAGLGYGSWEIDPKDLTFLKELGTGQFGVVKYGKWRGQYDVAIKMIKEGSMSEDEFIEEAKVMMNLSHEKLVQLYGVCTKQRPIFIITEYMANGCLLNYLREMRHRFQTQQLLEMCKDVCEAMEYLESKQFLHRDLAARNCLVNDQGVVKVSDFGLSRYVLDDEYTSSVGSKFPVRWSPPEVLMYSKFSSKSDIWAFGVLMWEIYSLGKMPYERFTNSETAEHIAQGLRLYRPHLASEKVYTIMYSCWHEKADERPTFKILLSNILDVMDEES
Tyrosine-protein kinase Tec (Homo sapiens), sequence (P42680 whole entry, looked up): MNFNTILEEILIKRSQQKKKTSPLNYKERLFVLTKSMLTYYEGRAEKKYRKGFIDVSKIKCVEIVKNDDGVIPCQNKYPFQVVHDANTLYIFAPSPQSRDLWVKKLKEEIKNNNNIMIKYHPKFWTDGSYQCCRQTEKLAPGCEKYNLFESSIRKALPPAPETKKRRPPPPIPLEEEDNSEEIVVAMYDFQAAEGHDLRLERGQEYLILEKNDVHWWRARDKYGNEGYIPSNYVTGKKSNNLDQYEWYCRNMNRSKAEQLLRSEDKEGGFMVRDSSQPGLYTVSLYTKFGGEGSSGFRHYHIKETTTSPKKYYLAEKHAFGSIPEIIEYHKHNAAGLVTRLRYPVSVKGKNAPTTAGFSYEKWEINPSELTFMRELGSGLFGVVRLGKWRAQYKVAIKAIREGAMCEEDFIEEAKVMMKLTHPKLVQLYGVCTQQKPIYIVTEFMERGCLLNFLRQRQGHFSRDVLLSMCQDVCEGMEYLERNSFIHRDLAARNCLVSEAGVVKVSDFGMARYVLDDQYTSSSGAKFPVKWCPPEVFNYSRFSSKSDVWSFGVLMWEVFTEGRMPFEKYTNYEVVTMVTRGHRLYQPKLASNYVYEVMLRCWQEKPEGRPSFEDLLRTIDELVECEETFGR

- AUC(0-t) at 24 h [1]: 1080 ng·h/mL
- Emax [2]: 99%
- half-life [3]: 1.88 h
- Activity [4]: inactive
- AUC(0-inf) [5]: 1590 ng·h/mL
- AUC(0-t) at 24 h [7]: 1560 ng·h/mL
- Activity [9]: 12%
- Activity [10]: inactive
- Activity [11]: inactive
- bioavailability [12]: 73.5%
- Activity [13]: inactive
- Activity [14]: inactive
- MRTlast [15]: 0.39 h
- Activity [16]: inactive
- Cmax [18]: 1240 ng/mL
- half-life [19]: 1.95 h
- CL/F [20]: 109 mL/min/kg
- Activity [21]: Active
- Activity [22]: Active
- Activity [23]: Active
- Cmax [24]: 3320 ng/mL
SMILES: CN(CCCCCC(=O)Nc1ccc2c(c1)C(=O)N(C1CCC(=O)NC1=O)C2=O)CC[C@@H](c1ccccc1)n1cc(NC(=O)c2n[nH]c3c2CCC(C)(C)C3)cn1.O=C(O)C(F)(F)F (some centres undefined)
- Activity [6]: Non-Toxic
- inhibition [8]: Dose-Dependent Effect
- Activity [17]: Non-Toxic
